Tests used:
hPRB = molecular target: T1, hPRB (Homo sapiens, UniProt P06401); assay: PR transactivation assay (GRE2-Luc) in HEK293T cells transiently expressing hPRB; type: cell-based; set-up: expressed in transfected cells; host or cells: HEK 293T; conditions: APRn 1 μM
T1 sequence (P06401 1-933): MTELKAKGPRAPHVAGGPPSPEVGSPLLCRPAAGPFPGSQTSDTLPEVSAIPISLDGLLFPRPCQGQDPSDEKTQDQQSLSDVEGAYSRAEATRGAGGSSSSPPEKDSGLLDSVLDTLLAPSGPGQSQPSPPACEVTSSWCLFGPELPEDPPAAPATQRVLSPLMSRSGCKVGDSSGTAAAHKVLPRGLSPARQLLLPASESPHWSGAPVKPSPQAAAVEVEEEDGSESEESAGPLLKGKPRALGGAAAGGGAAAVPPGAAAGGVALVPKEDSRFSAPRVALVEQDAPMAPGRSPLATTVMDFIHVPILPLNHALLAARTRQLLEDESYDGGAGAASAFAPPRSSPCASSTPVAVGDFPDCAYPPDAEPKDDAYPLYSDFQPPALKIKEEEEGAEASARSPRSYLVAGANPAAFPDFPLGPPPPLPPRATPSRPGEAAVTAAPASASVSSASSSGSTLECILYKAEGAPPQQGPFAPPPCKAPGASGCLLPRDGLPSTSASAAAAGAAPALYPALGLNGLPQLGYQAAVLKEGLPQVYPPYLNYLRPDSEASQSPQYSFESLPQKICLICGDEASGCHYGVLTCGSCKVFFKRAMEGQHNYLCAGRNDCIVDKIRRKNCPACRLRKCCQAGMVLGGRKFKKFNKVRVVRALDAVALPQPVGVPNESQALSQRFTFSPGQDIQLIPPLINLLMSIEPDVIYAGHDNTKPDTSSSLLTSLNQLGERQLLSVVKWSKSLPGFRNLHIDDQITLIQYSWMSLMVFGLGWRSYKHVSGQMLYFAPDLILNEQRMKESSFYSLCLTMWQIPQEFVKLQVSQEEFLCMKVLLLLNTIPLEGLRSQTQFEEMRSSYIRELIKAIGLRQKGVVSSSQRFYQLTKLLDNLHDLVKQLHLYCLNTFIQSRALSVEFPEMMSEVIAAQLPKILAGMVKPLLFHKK
Procedure: PR Transactivation Assays in HEK 293T.
HEK 293T cells were routinely cultured in a high-glucose DMEM medium (Invitrogene, Cergy Pontoise, France), 20 mM HEPES, 2 mM glutamine, 1× non essential amino acids, 100 U/mL penicillin and 100 μg/mL streptomycin supplemented with 10% foetal calf serum (FCS) in a humidified atmosphere at 37° C. and with 5% CO2. One day before transfection, the cells were seeded at 3×10^6 cells/[…] diameter culture Petri dish and cultured overnight in the same medium. Six hours before transfection, the FCS supplemented medium was replaced by the same medium supplemented with 10% dextran-charcoal treated FCS. Transfections were carried out using the calcium phosphate precipitation method. The calcium phosphate precipitate was prepared with 0.5 μg pchPRB (Petit-Topin, et al Mol Pharmacol, 2009, 75, 1317), 7 μg reporter vector (GRE2-Luc from A. Biola-Vidamment and M. Pallardy) and 1 μg of pcβgal for an internal transfection control, in 1 mL 140 mM NaCl, 0.75 mM Na2HPO4, 25 mM HEPES, 125 mM CaCl2 pH 7.05 and added to the cells 30 minutes later. After 16 h incubation, the transfected cells were washed with PBS containing 2.5 mM EDTA, trypsinized and pooled. The transfected cells were replated in 24-well plates (100.000 transfected cells/well). […] Cells were lysed in 300 μl PBS 1×, 25 mM glycylglycine, 4 mM EDTA, 15% glycerol, 1% triton X-100, 15 mM MgSO4, pH 7.8 supplemented with 2 mM β-mercaptoethanol. The luciferase activities were quantified by using a Mithras LB940 reader microplates (Berthold).
The APRn “agonist efficacy” was determined from the following formula:
Agonist efficacy=[luciferase activity]1/[luciferase activity]2×100
The APRn “antagonist efficacy” was calculated from the following formula:
Antagonist efficacy=100−[luciferase activity]1/[luciferase activity]2×100
The results are the mean±SEM of three to five independent experiments.
All the synthesized APRn were classified in 4 series depending on the nature of their C3 substituent (R1/R′1 groups). The first one (series 1) includes APRn with no C3 substituent (R1═R′1═H) whereas series 2, 3 and 4 are related to APRn bearing a methoxyl (R1═OMe), a hydroxyl (R1═OH) and a fluorine atom (R1═F), respectively. The agonist/antagonist activities of APRn were determined either in human HEK293T cells transiently expressing hPRB or in human MDA-MB-231 iPRAB cells conditionally expressing hPRB, by using a luciferase reporter gene placed under the control of a glucocorticoid response element (GRE2-Luc). The APRn “agonist efficacy” was determined from the luciferase activity measured in the presence of APRn (1 μM). […] The “agonist efficacy” and “antagonist efficacy” are expressed as defined in the biological protocols section.

hMR = molecular target: T2, hMR (Homo sapiens, UniProt P08235); assay: APRn selectivity: transactivation in HEK293T cells transiently expressing hMR; type: cell-based; conditions: mean±SEM
T2 construct: expressed in transfected cells; host or cells: HEK 293T
T2 sequence (P08235 1-984): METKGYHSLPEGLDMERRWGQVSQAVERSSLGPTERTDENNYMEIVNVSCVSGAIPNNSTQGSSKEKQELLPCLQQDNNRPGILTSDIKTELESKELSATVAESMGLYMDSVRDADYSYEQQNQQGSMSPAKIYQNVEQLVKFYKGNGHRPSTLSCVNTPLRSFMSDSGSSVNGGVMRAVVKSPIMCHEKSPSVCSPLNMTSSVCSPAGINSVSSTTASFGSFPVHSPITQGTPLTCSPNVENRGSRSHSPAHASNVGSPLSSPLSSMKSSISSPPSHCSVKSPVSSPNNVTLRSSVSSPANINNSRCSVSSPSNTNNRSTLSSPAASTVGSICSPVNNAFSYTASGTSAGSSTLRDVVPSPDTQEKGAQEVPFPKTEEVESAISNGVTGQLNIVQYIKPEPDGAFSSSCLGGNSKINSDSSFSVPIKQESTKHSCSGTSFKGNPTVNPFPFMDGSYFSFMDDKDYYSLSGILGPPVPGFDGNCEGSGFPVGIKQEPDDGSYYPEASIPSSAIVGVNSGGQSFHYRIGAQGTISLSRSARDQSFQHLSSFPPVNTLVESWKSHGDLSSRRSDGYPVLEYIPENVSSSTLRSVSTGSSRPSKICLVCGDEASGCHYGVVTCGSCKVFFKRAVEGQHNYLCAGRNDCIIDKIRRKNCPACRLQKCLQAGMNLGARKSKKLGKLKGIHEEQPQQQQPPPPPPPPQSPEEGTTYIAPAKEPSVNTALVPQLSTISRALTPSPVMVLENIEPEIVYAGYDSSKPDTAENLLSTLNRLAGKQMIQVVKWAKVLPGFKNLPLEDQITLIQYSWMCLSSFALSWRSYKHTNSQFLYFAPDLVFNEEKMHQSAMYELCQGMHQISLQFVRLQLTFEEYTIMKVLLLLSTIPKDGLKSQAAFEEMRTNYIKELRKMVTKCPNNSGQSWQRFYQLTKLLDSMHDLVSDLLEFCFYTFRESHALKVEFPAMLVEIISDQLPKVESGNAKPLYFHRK
Procedure: (§1) Measurement of the APRn Selectivity in HEK 293T.
(§2) The HEK-293T cells were cultured and transfected according to the method described above for the PR transactivation assays. The expression vectors pcDNA-hAR, kindly provided by G. A. Coetzee, pchGR (Hellal-Levy, C et al. FEBS Lett 1999, 464, 9), and pchMR (Fagart, J. et al. EMBO J. 1998, 17, 3317) were used for studying the ability of APRn to activate or inactivate the AR, GR and MR, respectively. For each transfection assays, 2 μg of the expression vector was used together with 7 μg of the GRE2-Luc reporter vector. Dihydrotestosterone (DHT), dexamethasone (Dex) and Aldosterone (Aldo) were selected as AR, GR and MR ligands, respectively. They were used at the concentration of 10^−9 M. The APRn agonist and antagonist efficacy for AR, GR and MR were measured as described above for PR. The results are the mean±SEM of three independent experiments.
(§3) Transfection assays were performed in HEK 293T cells by using expression vectors for the hAR, hGR and hMR and the GRE2-Luc reporter used for the PR transactivation assays.

hGR = molecular target: T3, hGR (Homo sapiens, UniProt P04150); assay: APRn selectivity: transactivation in HEK293T cells transiently expressing hGR; type: cell-based; conditions: HEK293T transiently expressing hGR, mean±SEM; for GR Antagonist efficacy (%): dexamethasone 10^−9 M; for Emax: HEK-293T, read-out: GR Agonist efficacy (%)
T3 construct: expressed in transfected cells; host or cells: HEK 293T
T3 sequence (P04150 1-777): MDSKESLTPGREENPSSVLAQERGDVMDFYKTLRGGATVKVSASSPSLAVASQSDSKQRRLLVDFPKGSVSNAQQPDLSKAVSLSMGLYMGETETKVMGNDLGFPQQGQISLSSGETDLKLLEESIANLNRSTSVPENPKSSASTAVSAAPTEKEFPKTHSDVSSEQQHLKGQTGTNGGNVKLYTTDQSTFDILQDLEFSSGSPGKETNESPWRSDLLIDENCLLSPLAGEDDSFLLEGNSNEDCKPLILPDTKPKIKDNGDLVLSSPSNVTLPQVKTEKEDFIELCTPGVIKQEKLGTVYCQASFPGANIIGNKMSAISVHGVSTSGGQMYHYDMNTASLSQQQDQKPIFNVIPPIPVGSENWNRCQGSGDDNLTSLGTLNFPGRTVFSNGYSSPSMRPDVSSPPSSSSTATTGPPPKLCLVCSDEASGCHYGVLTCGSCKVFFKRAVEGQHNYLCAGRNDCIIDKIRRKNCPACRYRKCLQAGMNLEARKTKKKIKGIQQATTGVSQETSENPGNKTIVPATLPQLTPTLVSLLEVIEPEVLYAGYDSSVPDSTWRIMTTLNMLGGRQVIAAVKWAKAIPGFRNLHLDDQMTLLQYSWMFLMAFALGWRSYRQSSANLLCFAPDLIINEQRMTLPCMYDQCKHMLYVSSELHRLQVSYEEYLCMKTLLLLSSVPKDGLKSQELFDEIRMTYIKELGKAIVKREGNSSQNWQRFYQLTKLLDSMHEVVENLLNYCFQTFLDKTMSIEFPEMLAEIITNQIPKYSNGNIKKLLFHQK
Procedure: as §1, §2, §3

[1] = series 2-4, stated for both HEK293T and MDA-MB-231 iPRAB cells, FIGS. 3-8

Structure (SMILES) | hPRB agonist/antagonist character (in words) (hPRB; [1]) | melting point | further results
C#CC(C)(O)[C@H]1CC[C@H]2[C@@H]3CC=C4C[C@@H](OC)CC[C@]4(C)[C@H]3CC[C@]12C (stereo partly drawn) [APR-31, 20-Ethynyl-3β-methoxypregn-5-en-20-ol] | antagonist character without any agonist activity | 175 to 176 °C | –
C#C[C@]1(O)CCC2C3CC[C@H]4CCCC[C@]4(C)C3CC[C@@]21C (stereo partly drawn) [APR-32, 17α-Ethynyl-5α-androstan-17β-ol] | – | 152 to 153 °C | hPRB agonist/antagonist character (in words) (hPRB; series 1 (no C3 substituent), HEK293T, FIG. 1): full antagonists
C[C@]12CC[C@H](F)CC1=CC[C@@H]1[C@@H]2CC[C@]2(C)C(=O)CC[C@@H]12 [APR-33, 3β-Fluoroandrost-5-en-17-one] | efficient hPRB antagonists | 155 to 156 °C | –
C#C[C@]1(O)CCC2C3CC=C4C[C@@H](F)CC[C@]4(C)C3CC[C@@]21C (stereo partly drawn) [APR-34, 17α-Ethynyl-3β-fluoro-androst-5-en-17β-ol] | efficient hPRB antagonists | 219 to 220 °C | –
C[C@]12CC[C@H](F)C[C@@H]1CC[C@@H]1[C@@H]2CC[C@]2(C)C(=O)CC[C@@H]12 [APR-35, 3β-Fluoro-5α-androstan-17-one] | efficient hPRB antagonists | 126 to 127 °C | –
C#C[C@]1(O)CCC2C3CC[C@H]4C[C@@H](F)CC[C@]4(C)C3CC[C@@]21C (stereo partly drawn) [APR-36, 17α-Ethynyl-3β-fluoro-5α-androstan-17β-ol] | efficient hPRB antagonists | 225 to 226 °C | –
C[C@]12CC[C@H](F)C[C@@H]1CC[C@@H]1[C@@H]2CC[C@]2(C)[C@@H](O)CC[C@@H]12 [APR-40, 3β-Fluoro-5α-androstan-17β-ol] | – | 150 to 151 °C | MR Antagonist efficacy (%) (hMR; aldosterone 10^−9 M): 0.4 ± 2.6%; MR Agonist efficacy (%) (hMR): 0.57 ± 0.05%; GR Antagonist efficacy (%) (hGR): 5.5 ± 3.9%; Emax (hGR): 0.3 ± 0.06%
CC(=O)O[C@H]1CCC2C3CC=C4C[C@@H](F)CC[C@@H]4C3CC[C@@]21C (stereo partly drawn) [APR-45, 17β-Acetoxy-3β-fluoro-19-nor-androst-5-ene] | efficient hPRB antagonists | 104 to 105 °C | –
C[C@]12CCC3C(CC=C4C[C@@H](F)CC[C@@H]43)C1CC[C@@H]2O (stereo partly drawn) [APR-46, 31-Fluoro-19-nor-androst-5-en-17β-ol] | efficient hPRB antagonists | 121 to 122 °C | –
C#C[C@]1(O)CCC2C3CC=C4C[C@@H](F)CC[C@@H]4C3CC[C@@]21C (stereo partly drawn) [APR-50, 17α-Ethynyl-3β-fluoro-19-nor-androst-5-en-17β-ol] | – | 149 to 150 °C | GR Antagonist efficacy (%) (hGR): 7.4 ± 1.9%; Emax (hGR): 0.25 ± 0.1%

— US20130203718A1 (priority 2010, published 2013)
